Test results taken from article PMC12051620, “Molecular basis underlying the specificity of an antagonist AA92593 for mammalian melanopsins” (The Journal of Biological Chemistry, 2025).

Molecular target: T1, human melanopsin WT (Homo sapiens, UniProt Q9UHM6)
T1 construct: expressed in transfected cells; host or cells: COS-1
T1 sequence (Q9UHM6 1-384 limits assumed): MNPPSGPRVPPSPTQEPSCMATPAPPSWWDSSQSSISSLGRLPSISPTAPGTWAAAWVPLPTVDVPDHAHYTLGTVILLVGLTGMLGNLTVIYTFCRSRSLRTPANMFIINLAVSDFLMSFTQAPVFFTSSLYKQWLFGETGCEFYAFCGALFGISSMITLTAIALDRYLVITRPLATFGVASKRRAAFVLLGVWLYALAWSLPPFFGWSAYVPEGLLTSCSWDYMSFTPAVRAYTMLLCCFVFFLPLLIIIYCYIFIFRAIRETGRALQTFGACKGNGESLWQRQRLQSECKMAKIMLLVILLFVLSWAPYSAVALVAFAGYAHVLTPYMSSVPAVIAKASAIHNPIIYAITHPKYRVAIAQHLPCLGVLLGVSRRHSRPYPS
Experiment: GsX GloSensor assay with Gsα/q11 (light-induced cAMP response)
Assay type: cell-based
Settings: COS-1 cells
Excerpt: To quantify the antagonistic effects of AA92593 on mammalian melanopsins, we used the GsX GloSensor assay ([12], [13], [14]). This assay measures GPCR-induced increases in intracellular cAMP levels even for Gq-, Gi/o-, or G12-coupled receptors by using Gsα chimeras ([12], [13], [14]). Because melanopsin is primarily coupled with Gq-type G proteins, a Gsα mutant with 11 C-terminal sequence of Gqα (Gsα/q11) was expressed in COS-1 cells with melanopsin and a luciferase-based cAMP biosensor (see “Experimental procedures”) ([15]). This assay enables the measurement of Gq activation by melanopsin as cAMP production (an increase in luminescence). In this study, we used C-terminal–truncated melanopsin constructs to increase the expression levels with minimal compromise in functionality ([9], [16], [17], [18], [19]). […] In addition, the C-terminal region is located far from the binding site of AA92593 (see below). Hereafter, the C-terminal–truncated melanopsin constructs are named as “WT.”
In the constructs for melanopsin expression (opsin name - GenBank ID: human melanopsin - NM_033282.4, mouse melanopsin - NM_013887.2, Xenopus Opn4x - NM_001085674.1, chicken opn4-1 - NM_001397961.1, B. belcheri melanopsin - AB205400.1, and B. lanceolatum melanopsin - MF464477.1), the C-terminal amino acid residues (94, 140, 200, 214, 296, and 308 residues for human ([9]), mouse ([9]), Xenopus, chicken, belcheri ([16]), and lanceolatum melanopsins, respectively) were removed, the 1D4 tag sequence (ETSQVAPA) was added, and inserted into the EcoRI/NotI site in a mammalian expression vector pMT. Jumping spider rhodopsin-1 (GenBank ID: AB251846.1) was also added with the 1D4 tag and inserted into pMT vector. Human and mouse melanopsins, and jumping spider rhodopsin-1 in pCDNA3.1 were kindly provided from Drs. Akihisa Terakita and Mitsumasa Koyanagi (Osaka Metropolitan University). In this paper, each opsin with the C-terminal sequence modifications as described above is denoted “WT.” Bovine Gsα and its mutants Gsα/q11 and Gsα/i11 (C-terminal 11 residues are replaced with Gqα and Giα, respectively) were also inserted into the pMT vector. The GFP-tagged melanopsin constructs, in which EGFP protein fused with C-termini of melanopsins, were prepared as previously described ([9], [50]). […]
For GloSensor assay, opsins, GloSensor assay sensor (coded by pGlo-22F), and NanoBiT-tagged G proteins were transiently expressed in COS-1 cells (kindly provided from Dr David Farrens, Oregon Health and Science University) using PEI as described previously ([24], [52]). […] For GFP-fluorescence microscopy, a 35-mm cell culture dish (IWAKI) was transfected with 2 μg melanopsin-GFP plasmid and 8 μg PEI in 400 μl Opti-mem and 1.2 ml D-MEM. […]

[1] = relative peak cAMP response vs no AA92593

With `COc1ccc(S(=O)(=O)N2CCCCC2)cc1C` [AA92593] the “Hill fitting parameter rate of dose-response curve” value was −0.92 ± 0.21, the IC50 (0.1 μM 9-cis-retinal, white light 10 s, n = 3, read-out: IC50, reduction in peak cAMP responses upon Gsα/q11 activation) was 1050 ± 280 nM and the “Hill fitting parameter max of dose-response curve” value [1] was 102.59 ± 2.72. The “Hill fitting parameter min of dose-response curve” value [1] was 13.65 ± 7.28.
